# Non-standard residues stand in square brackets, D forms with d. Residues, ends and D or L forms follow the SMILES beside them. Bip = N[C@@H](Cc1ccc(-c2ccccc2)cc1)C(=O)O
# How the values were obtained:
# A. baumannii B28-16 = assay type: cell-based, Acinetobacter baumannii
# Experimental: (§1) The antibiotic-resistant pathogens used in this study include the Gram-positive bacteria Enterococcus faecium V286-17 and Staphylococcus aureus USA300 LAC and the Gram-negative bacteria Klebsiella pneumoniae E406-17, Acinetobacter baumannii B28-16, Pseudomonas aeruginosa E411-17, and Escherichia coli E423-17. All bacteria were cultivated in tryptic soy broth (TSB) at 37 °C, 220 rpm.
# (§2) The antibacterial activity of peptides was evaluated using a standard broth microdilution protocol with minor modifications. In brief, peptides were made at various concentrations, 10 μL per well in a 96-well polystyrene microplate. Logarithmic phase bacterial cultures (i.e., optical density (OD) at 600 nm ≈ 0.5) were diluted to 0.001 OD, and aliquots of 90 μL were added to each well. Untreated bacterial culture and medium were included as positive and negative controls, respectively. Plates were incubated at 37 °C overnight and read at 630 nm using a ChroMate Microplate Reader (Awareness Technology, Palm City, FL, USA). […] Our previously designed peptide 17BIPHE2 [32] was included as a positive control, and RI-10, a peptide without antibacterial activity in rich media, was utilized as a negative control.
# S. aureus USA300 = assay type: cell-based, Staphylococcus aureus
# Experimental: as §1, §2
# S. aureus USA300 LAC [1] = test: Membrane permeabilization (propidium iodide); assay type: cell-based, Staphylococcus aureus; conditions: peptide 8 µM; propidium iodide fluorescence, 2 h, PBS, 37 °C
# Experimental: Membrane permeabilization was evaluated as described. In brief, bacteria were inoculated and grown overnight. A second inoculation was made and let bacteria grow to the exponential phase. Bacteria were then spun, washed, and resuspended in the same volume of PBS. A series of peptide solutions (10×) was made via two-fold dilution in a 96-well plate (10 µL each). All wells were aliquoted with 2 µL of propidium iodide (20 µM), followed by adding 88 µL of S. aureus USA300 or A. baumannii B28-16 (OD600 ~0.11 in PBS). The plate was incubated at 37 °C with continuous shaking at 100 rpm in a FLUOstar Omega microplate reader (BMG Labtech Inc., Cary, NC, USA). Fluorescence was recorded every 5 min for 2 h with excitation and emission wavelengths of 485 and 620 nm. The data were analyzed by the vendor’s software using averaged values from duplicated experiments.
# S. aureus USA300 LAC [2] = test: Membrane depolarization (DiBAC4(3)); assay type: cell-based, Staphylococcus aureus; conditions: peptide 8 µM; similar trends at 16 and 32 µM; DiBAC4(3) fluorescence
# Experimental: The experiment was conducted as described. In brief, an overnight culture of S. aureus USA300 LAC was subcultured in a fresh TSB medium and grown to the exponential phase. Cells were spun using centrifugation and washed twice with PBS, and resuspended in twice the volume of PBS containing 25 mM glucose and incubated at 37 °C for 15 min. For membrane depolarization measurements, 500 nM (final concentration) of the dye DiBAC4 (3) (bis-(1,3- dibutylbarbituric acid) trimethine oxonol) (AnaSpec, San Jose, CA, USA) was added and vortexed gently. Aliquots of 90 μL of the energized bacteria solution were loaded to the wells, and the plate was fed into a FLUOstar Omega microplate reader. Fluorescence was read for 20 min at excitation and emission wavelengths of 485 and 520 nm, respectively, to get dye normalization. Then 10 μL of diluted peptide solutions were added and gently mixed. Fluorescence readings were recorded for 40 min, where Triton X-100 (0.1%) was used as a positive control.
# Human red blood cells = test: Hemolytic assay; assay type: cell-based; conditions: red cells of human, 1 h
# Experimental: Human red blood cells (hRBCs, the UNMC Blood Bank) were washed three to five times with saline (Fisher Scientific, Waltham, MA, USA) at 800 g for 10 min each time, until the supernatant was clear. The supernatant was discarded, and hRBCs were suspended in saline at a final density of 2%. Ninety microliters of hRBC suspensions were added to each well of 96-well plates containing 10 µL of 10× serially diluted peptides. After incubation at 37 °C for 1 h, the plates were centrifuged at 1500 rpm for 5 min. About 80 µL of the supernatant was carefully pipetted to a new 96-well microplate and read at 545 nm to measure the amount of hemoglobin released. The positive control was 1% Triton X-100, and the negative control was saline. The percentage of hRBC lysis was calculated based on the hemoglobin released.
# [3] = HPLC retention time (measure of peptide hydrophobicity); assay type: physicochemical; conditions: chromatographic, Waters C8 symmetry hydrophobic column, as described in ref 34; used as indicator of peptide hydrophobicity
# Excerpt: In the membrane-bound LL-37 structure determined by 3D NMR spectroscopy, a hydrophobic gap exists (Figure 1A). The location of a hydrophilic S9 on the hydrophobic surface of LL-37 splits the long helix into two hydrophobic domains (gold sticks). The SK-24 peptide we identified here corresponds to the long hydrophobic domain [26]. The amino acid sequence of SK-24, along with LL-37 and its derived antimicrobial peptides, is depicted in Figure 1B. Peptide parameters, including net charge, hydrophobic content, Boman index, GRAVY, hydrophobicity, and hydrophobic moment of each peptide, were calculated using online tools, such as the APD [8] and HeliQuest (Table 1). Except for the shortest RI-10 (net charge +3), LL-37 and its other derived peptides have net charges +5 or +6, above the average net charge (+3.3) of natural antimicrobial peptides registered in the APD [8, 35, 36]. Overall, the hydrophobic percentages (Pho) of these peptides calculated in the APD are proportional to the hydrophobicity and hydrophobic moment calculated by HeliQuest in Table 1. Of note, LL-37 has the highest net charge (+6) and Boman index but the lowest Pho%, GRAVY, and hydrophobic moment.
# All peptides were chemically synthesized and purified to >95% (Genemed Synthesis, San Antonio, TX, USA). The quality of each peptide was determined based on mass spectrometry (MS) and high-performance liquid chromatography (HPLC). Peptide stock solutions were freshly made by solubilizing in autoclaved distilled water, and their concentrations were quantitated using UV spectroscopy based on the absorbance difference at 215 and 225 nm as described. Peptide retention time was measured on a Waters C8 symmetry hydrophobic column as described. Other chemicals were purchased from Sigma (St. Louis, MO, USA) unless specified.
# K. pneumoniae E406-17 = assay type: cell-based, Klebsiella pneumoniae; conditions: E406-17
# Experimental: as §1, §2
smiles,measurement,setting,value
CC(C)C[C@H](NC(=O)[C@H](CC(N)=O)NC(=O)[C@H](CCCNC(=N)N)NC(=O)[C@@H](CC(C)C)NC(=O)[C@H](Cc1ccc(-c2ccccc2)cc1)NC(=O)[C@H](CC(=O)O)NC(=O)[C@H](CCCCN)NC(=O)[C@@H](CC(C)C)NC(=O)[C@H](CCCNC(=N)N)NC(=O)[C@H](CCC(N)=O)NC(=O)[C@@H](NC(=O)[C@@H](CC(C)C)NC(=O)[C@H](CCCNC(=N)N)NC(=O)[C@H](CCCCN)NC(=O)[C@H](Cc1ccc(-c2ccccc2)cc1)NC(=O)CN)C(C)C)C(=O)N[C@H](C(N)=O)C(C)C [Peptide 17BIPHE2] (H-G[Bip]KR[dL]VQR[dL]KD[Bip][dL]RNLV-NH2; N-terminus assumed),MIC,A. baumannii B28-16,4 to 8 µM
same,MIC,S. aureus USA300,4 µM
same,Membrane permeation,S. aureus USA300 LAC [1],more powerful
same,"Membrane depolarization ability (order, words)",S. aureus USA300 LAC [2],GI-20 > 17BIPHE2 > GF-17~SK-24 > LL-37
same,HC50 (50% hemolytic concentration),Human red blood cells,~ 200 µM
same,tHPLC (HPLC retention time),[3],10.753 min
same,MIC,K. pneumoniae E406-17,4 to 8 µM

# Source: publication PMC8703873, “Structure and Activity of a Selective Antibiofilm Peptide SK-24 Derived from the NMR Structure of Human Cathelicidin LL-37” (Pharmaceuticals, 2021)
